Values quoted from earlier work in patent US8691571B1, “Extending tissue preservation” (University of South Florida, priority 1998, dated 2014).

System: rabbit cornea
Settings: addition to storage medium; without changing metabolic activity for at least 11 days

CC(O)CC(=O)O (stereo not drawn) [beta-hydroxy butyrate]
diminished lactic acid concentration of rabbit cornea: 85%
